Measured values published in ChEMBL document CHEMBL5042477, “Potent Cyclic Peptide Inhibitors of FXIIa Discovered by mRNA Display with Genetic Code Reprogramming” (J Med Chem, 2021).
Where a SMILES comes first, the peptide text is derived from it. Bridges are numbered along the chain shown (N, C = ends). [ ]: non-standard residue; d: D form. Tyr(3-NO2) = N[C@@H](Cc1ccc(O)c([N+](=O)[O-])c1)C(=O)O; Phe(3-CF3) = N[C@@H](Cc1cccc(C(F)(F)F)c1)C(=O)O; Phe(4-CF3) = N[C@@H](Cc1ccc(C(F)(F)F)cc1)C(=O)O; Phe(2-CN) = N#Cc1ccccc1C[C@H](N)C(=O)O; Phe(3-Me) = Cc1cccc(C[C@H](N)C(=O)O)c1; Phe(4-Me) = Cc1ccc(C[C@H](N)C(=O)O)cc1; 1Nal = N[C@@H](Cc1cccc2ccccc12)C(=O)O; Phe(2-F) = N[C@@H](Cc1ccccc1F)C(=O)O; hTyr = N[C@@H](CCc1ccc(O)cc1)C(=O)O; hPhe = N[C@@H](CCc1ccccc1)C(=O)O; 2Pal = N[C@@H](Cc1ccccn1)C(=O)O; Orn = NCCC[C@H](N)C(=O)O

Molecular target: T1, Coagulation factor XII (Homo sapiens, UniProt P00748)
T1 sequence (P00748 whole entry): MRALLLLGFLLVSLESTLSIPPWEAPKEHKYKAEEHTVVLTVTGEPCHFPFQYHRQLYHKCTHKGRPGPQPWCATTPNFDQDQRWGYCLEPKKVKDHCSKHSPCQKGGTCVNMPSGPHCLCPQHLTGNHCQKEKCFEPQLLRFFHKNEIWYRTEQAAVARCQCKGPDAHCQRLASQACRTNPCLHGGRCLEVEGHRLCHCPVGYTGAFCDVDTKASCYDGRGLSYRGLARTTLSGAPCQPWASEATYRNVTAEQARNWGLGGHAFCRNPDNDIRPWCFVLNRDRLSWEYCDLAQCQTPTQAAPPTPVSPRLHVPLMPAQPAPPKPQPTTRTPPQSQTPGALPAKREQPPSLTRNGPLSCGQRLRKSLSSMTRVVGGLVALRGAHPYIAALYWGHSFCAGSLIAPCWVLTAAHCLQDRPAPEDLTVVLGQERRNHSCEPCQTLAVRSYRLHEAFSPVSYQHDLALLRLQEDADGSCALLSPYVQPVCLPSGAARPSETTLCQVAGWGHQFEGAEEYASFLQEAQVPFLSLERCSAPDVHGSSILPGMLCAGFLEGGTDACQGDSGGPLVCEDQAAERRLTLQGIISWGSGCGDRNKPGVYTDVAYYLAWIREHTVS
Assay: Inhibition of human factor 12a using H-D-Pro-Phe-Arg-p-nitroanilide as chromogenic substrate assessed as liberation of p-nitroaniline measured every 5 mins for 60 min by multimode plate reader analysis

Compound | IC50
CC(C)C[C@@H]1NC(=O)[C@H](Cc2ccc(O)cc2)NC(=O)CSC[C@@H](C(N)=O)NC(=O)CNC(=O)CNC(=O)[C@H](CCCNC(=N)N)NC(=O)[C@H](CC(=O)O)NC(=O)[C@H](CCCCN)NC(=O)[C@H](C)NC(=O)[C@H](CCCNC(=N)N)NC(=O)[C@H](Cc2ccccc2)NC(=O)[C@H](CCCNC(=N)N)NC1=O ({CH2CO}-YLRFRAKDRGGC-NH2; thioether N-12) | 260 nM
CC(C)C[C@@H]1NC(=O)[C@H](Cc2ccc(O)cc2)NC(=O)CSC[C@@H](C(N)=O)NC(=O)CNC(=O)CNC(=O)[C@H](CCCNC(=N)N)NC(=O)[C@H](CC(=O)O)NC(=O)[C@H](CCCCN)NC(=O)[C@@H]2CCCN2C(=O)[C@H](CCCNC(=N)N)NC(=O)[C@H](Cc2ccccc2)NC(=O)[C@H](CCCN)NC1=O ({CH2CO}-YL[Orn]FRPKDRGGC-NH2; thioether N-12) | 71000 nM
CC(C)C[C@@H]1NC(=O)[C@H](CCc2ccc(O)cc2)NC(=O)CSC[C@@H](C(N)=O)NC(=O)CNC(=O)CNC(=O)[C@H](CCCNC(=N)N)NC(=O)[C@H](CC(=O)O)NC(=O)[C@H](CCCCN)NC(=O)[C@@H]2CCCN2C(=O)[C@H](CCCNC(=N)N)NC(=O)[C@H](Cc2ccccc2)NC(=O)[C@H](CCCNC(=N)N)NC1=O ({CH2CO}-[hTyr]LRFRPKDRGGC-NH2; thioether N-12) | 370000 nM
CC(C)C[C@@H]1NC(=O)[C@H](Cc2ccc(O)cc2)NC(=O)CSC[C@@H](C(N)=O)NC(=O)CNC(=O)[C@H](C)NC(=O)[C@H](CCC(N)=O)NC(=O)[C@H](CC(N)=O)NC(=O)[C@H]([C@@H](C)O)NC(=O)[C@@H]2CCCN2C(=O)[C@H](CCCCN)NC(=O)[C@H](CC(C)C)NC(=O)[C@H](CCCNC(=N)N)NC1=O ({CH2CO}-YLRLKPTNQAGC-NH2; thioether N-12) | 21000 nM
CC(C)C[C@@H]1NC(=O)[C@H](C)NC(=O)[C@H](CC(C)C)NC(=O)[C@H](Cc2ccc(O)cc2)NC(=O)CSC[C@@H](C(N)=O)NC(=O)CNC(=O)CNC(=O)[C@H](CCC(N)=O)NC(=O)[C@H](CC(N)=O)NC(=O)[C@H]([C@@H](C)O)NC(=O)[C@@H]2CCCN2C(=O)[C@H](CCCCN)NC1=O ({CH2CO}-YLALKPTNQGGC-NH2; thioether N-12) | 850000 nM
CC(C)C[C@@H]1NC(=O)[C@H](Cc2ccc(O)cc2)NC(=O)CSC[C@@H](C(N)=O)NC(=O)CNC(=O)CNC(=O)[C@H](CCC(N)=O)NC(=O)[C@H](C)NC(=O)[C@H]([C@@H](C)O)NC(=O)[C@@H]2CCCN2C(=O)[C@H](CCCCN)NC(=O)[C@H](CC(C)C)NC(=O)[C@H](CCCNC(=N)N)NC1=O ({CH2CO}-YLRLKPTAQGGC-NH2; thioether N-12) | 590 nM
CC(C)C[C@@H]1NC(=O)[C@H](Cc2ccc(O)cc2)NC(=O)CSC[C@@H](C(N)=O)NC(=O)CNC(=O)CNC(=O)[C@H](CCCNC(=N)N)NC(=O)[C@H](CC(=O)O)NC(=O)[C@H](CCCCN)NC(=O)[C@@H]2CCCN2C(=O)[C@H](CCCNC(=N)N)NC(=O)[C@H](Cc2ccc(C(F)(F)F)cc2)NC(=O)[C@H](CCCNC(=N)N)NC1=O ({CH2CO}-YLR[Phe(4-CF3)]RPKDRGGC-NH2; thioether N-12) | 110 nM
CC(C)C[C@@H]1NC(=O)[C@H](Cc2ccc(O)c([N+](=O)[O-])c2)NC(=O)CSC[C@@H](C(N)=O)NC(=O)CNC(=O)CNC(=O)[C@H](CCCNC(=N)N)NC(=O)[C@H](CC(=O)O)NC(=O)[C@H](CCCCN)NC(=O)[C@@H]2CCCN2C(=O)[C@H](CCCNC(=N)N)NC(=O)[C@H](Cc2ccccc2)NC(=O)[C@H](CCCNC(=N)N)NC1=O ({CH2CO}-[Tyr(3-NO2)]LRFRPKDRGGC-NH2; thioether N-12) | 90000 nM
CC(C)C[C@@H]1NC(=O)[C@H](Cc2ccc(O)cc2)NC(=O)CSC[C@@H](C(N)=O)NC(=O)CNC(=O)CNC(=O)[C@H](CCCNC(=N)N)NC(=O)[C@H](CC(=O)O)NC(=O)[C@H](CCCCN)NC(=O)[C@@H]2CCCN2C(=O)[C@H](CCCNC(=N)N)NC(=O)[C@H](CCc2ccccc2)NC(=O)[C@H](CCCNC(=N)N)NC1=O ({CH2CO}-YLR[hPhe]RPKDRGGC-NH2; thioether N-12) | 740 nM
CC(C)C[C@@H]1NC(=O)[C@H](Cc2ccc(O)cc2)NC(=O)CSC[C@@H](C(N)=O)NC(=O)CNC(=O)CNC(=O)[C@H](CCCNC(=N)N)NC(=O)[C@H](CC(=O)O)NC(=O)[C@H](CCCCN)NC(=O)[C@@H]2CCCN2C(=O)[C@H](CCCNC(=N)N)NC(=O)[C@H](Cc2ccccn2)NC(=O)[C@H](CCCNC(=N)N)NC1=O ({CH2CO}-YLR[2Pal]RPKDRGGC-NH2; thioether N-12) | 96 nM
Cc1cccc(C[C@@H]2NC(=O)[C@H](CCCNC(=N)N)NC(=O)[C@H](CC(C)C)NC(=O)[C@H](Cc3ccc(O)cc3)NC(=O)CSC[C@@H](C(N)=O)NC(=O)CNC(=O)CNC(=O)[C@H](CCCNC(=N)N)NC(=O)[C@H](CC(=O)O)NC(=O)[C@H](CCCCN)NC(=O)[C@@H]3CCCN3C(=O)[C@H](CCCNC(=N)N)NC2=O)c1 ({CH2CO}-YLR[Phe(3-Me)]RPKDRGGC-NH2; thioether N-12) | 73 nM
CC(C)C[C@@H]1NC(=O)[C@H](Cc2ccc(O)cc2)NC(=O)CSC[C@@H](C(N)=O)NC(=O)CNC(=O)CNC(=O)[C@H](CCCNC(=N)N)NC(=O)[C@H](CC(=O)O)NC(=O)[C@H](CCCCN)NC(=O)[C@@H]2CCCN2C(=O)[C@H](CCCNC(=N)N)NC(=O)[C@H](Cc2cccc(C(F)(F)F)c2)NC(=O)[C@H](CCCNC(=N)N)NC1=O ({CH2CO}-YLR[Phe(3-CF3)]RPKDRGGC-NH2; thioether N-12) | 93 nM
Cc1ccc(C[C@@H]2NC(=O)[C@H](CCCNC(=N)N)NC(=O)[C@H](CC(C)C)NC(=O)[C@H](Cc3ccc(O)cc3)NC(=O)CSC[C@@H](C(N)=O)NC(=O)CNC(=O)CNC(=O)[C@H](CCCNC(=N)N)NC(=O)[C@H](CC(=O)O)NC(=O)[C@H](CCCCN)NC(=O)[C@@H]3CCCN3C(=O)[C@H](CCCNC(=N)N)NC2=O)cc1 ({CH2CO}-YLR[Phe(4-Me)]RPKDRGGC-NH2; thioether N-12) | 56 nM
CC(C)C[C@@H]1NC(=O)[C@H](Cc2ccccc2F)NC(=O)CSC[C@@H](C(N)=O)NC(=O)CNC(=O)CNC(=O)[C@H](CCCNC(=N)N)NC(=O)[C@H](CC(=O)O)NC(=O)[C@H](CCCCN)NC(=O)[C@@H]2CCCN2C(=O)[C@H](CCCNC(=N)N)NC(=O)[C@H](Cc2ccccc2)NC(=O)[C@H](CCCNC(=N)N)NC1=O ({CH2CO}-[Phe(2-F)]LRFRPKDRGGC-NH2; thioether N-12) | 350 nM
CC(C)C[C@@H]1NC(=O)[C@H](CCCNC(=N)N)NC(=O)[C@H](CC(C)C)NC(=O)[C@H](Cc2ccc(O)cc2)NC(=O)CSC[C@@H](C(N)=O)NC(=O)CNC(=O)CNC(=O)[C@H](CCC(N)=O)NC(=O)[C@H](CC(N)=O)NC(=O)[C@H]([C@@H](C)O)NC(=O)[C@@H]2CCCN2C(=O)[C@H](C)NC1=O ({CH2CO}-YLRLAPTNQGGC-NH2; thioether N-12) | 60000 nM
CC(C)C[C@@H]1NC(=O)[C@H](Cc2ccc(O)cc2)NC(=O)CSC[C@@H](C(N)=O)NC(=O)CNC(=O)CNC(=O)[C@H](CCCNC(=N)N)NC(=O)[C@H](CC(=O)O)NC(=O)[C@H](CCCCN)NC(=O)[C@@H]2CCCN2C(=O)[C@H](CCCNC(=N)N)NC(=O)[C@H](Cc2ccccc2)NC(=O)[C@H](CCCCN)NC1=O ({CH2CO}-YLKFRPKDRGGC-NH2; thioether N-12) | 300 nM
CC(C)C[C@@H]1NC(=O)[C@H](Cc2ccc(O)cc2)NC(=O)CSC[C@@H](C(N)=O)NC(=O)CNC(=O)CNC(=O)[C@H](CCC(N)=O)NC(=O)[C@H](CC(N)=O)NC(=O)[C@H](C)NC(=O)[C@@H]2CCCN2C(=O)[C@H](CCCCN)NC(=O)[C@H](CC(C)C)NC(=O)[C@H](CCCNC(=N)N)NC1=O ({CH2CO}-YLRLKPANQGGC-NH2; thioether N-12) | 450 nM
CC(C)C[C@@H]1NC(=O)[C@H](Cc2cccc(C(F)(F)F)c2)NC(=O)CSC[C@@H](C(N)=O)NC(=O)CNC(=O)CNC(=O)[C@H](CCCNC(=N)N)NC(=O)[C@H](CC(=O)O)NC(=O)[C@H](CCCCN)NC(=O)[C@@H]2CCCN2C(=O)[C@H](CCCNC(=N)N)NC(=O)[C@H](Cc2ccccc2)NC(=O)[C@H](CCCNC(=N)N)NC1=O ({CH2CO}-[Phe(3-CF3)]LRFRPKDRGGC-NH2; thioether N-12) | 84000 nM
CC(C)C[C@@H]1NC(=O)[C@H](Cc2ccccc2C#N)NC(=O)CSC[C@@H](C(N)=O)NC(=O)CNC(=O)CNC(=O)[C@H](CCCNC(=N)N)NC(=O)[C@H](CC(=O)O)NC(=O)[C@H](CCCCN)NC(=O)[C@@H]2CCCN2C(=O)[C@H](CCCNC(=N)N)NC(=O)[C@H](Cc2ccccc2)NC(=O)[C@H](CCCNC(=N)N)NC1=O ({CH2CO}-[Phe(2-CN)]LRFRPKDRGGC-NH2; thioether N-12) | 14000 nM
CC(C)C[C@@H]1NC(=O)[C@H](Cc2ccc(O)cc2)NC(=O)CSC[C@@H](C(N)=O)NC(=O)CNC(=O)CNC(=O)[C@H](CCCNC(=N)N)NC(=O)[C@H](CC(=O)O)NC(=O)[C@H](CCCCN)NC(=O)[C@@H]2CCCN2C(=O)[C@H](CCCNC(=N)N)NC(=O)[C@H](Cc2cccc3ccccc23)NC(=O)[C@H](CCCNC(=N)N)NC1=O ({CH2CO}-YLR[1Nal]RPKDRGGC-NH2; thioether N-12) | 68 nM
